Source: patent US20110312992A1, “Inhibitors of C-Kit and Uses Thereof” (priority 2006, published 2011)
Where a name gives a salt, the structure may show the parent alone.

Assays:
[1] = biological target: c-Kit (Homo sapiens, UniProt P10721); test: c-Kit kinase enzymatic assay (tyrosine phosphorylation, UpState protocol); format: biochemical; details: FIG. 5
Description: IC50 values were determined for compounds of Examples 1, 10, 12 and 13 using a c-Kit kinase enzymatic assay. Phosphorylation of tyrosine was measured using a kinase assay protocol as provided by UpState Cell Signaling Solutions (Lake Placid, N.Y.). […] The results of the kinase assays validate the modeling and assessment of the structure/activity relationship data.

[2] = tested on: OCI/AML3; test: MTT-based cell proliferation/toxicity assay, OCI/AML3; parameters: species or system human; details: for ability to reduce cell line (dose response): OCI/AML3, FIG. 25
Source text: (§1) An MTT- (3,(4,5-dimethylthiazol-2-yl)-5-(3-carboxymethoxyphenyl)-2-(4-sulfophenyl)-2H-tetrazolium) based cell proliferation/toxicity assay system (Promega, Madison, Wis.) using cell lines, including the AML cell lines OCIM2 and OCI/AML3, was used to evaluate the effectiveness of the compounds as set forth herein in inhibition of c-Kit cellular activity.
(§2) AML cell lines OCIM2 and OCI/AML3 are human erythroleukemia lines and were provided by M. D. Minden, (Ontario Cancer Institute, Toronto, ON, Canada and as referenced in: Papayannopoulou et al., Blood (1988) 72:1029-1038; Wang et al., Leukemia (1989) 3: 236-249). Cells were maintained in RPMI 1640 culture medium (GIBCO, Grand Island, N.Y.) supplemented with 10% FCS (Flow Laboratories, McLean, Va.) and split twice weekly.
(§3) Briefly, cells were harvested at the logarithmic phase of their growth. They were then washed twice in RPMI 1640 containing 10% FCS and counted in a hemocytometer, and their viability was determined using 0.1% trypan blue staining. Equal numbers of viable cells (5×10^4 cells per well) were incubated in RPMI 1640 medium supplemented with 10% FCS alone or with the candidate drugs at increasing concentrations; the incubations were continued for 72 h in 96-well flat-bottomed plates (Linbro; Flow Laboratories, McLean, Va.) at 37° C. in a humidified 5% CO2 atmosphere. After incubation, 20 μl of CellTiter96 One Solution Reagent (Promega) was added to each well. The plates were then incubated for an additional 60 min at 37° C. in a humidified 5% CO2 atmosphere. Immediately after incubation, absorbance was read using a 96-well plate reader at a wavelength of 490 nm. Each data point was determined six times before analysis.
(§4) While OCIM2 and OCI/AML3 are both AML cell lines, c-Kit is expressed to a much higher degree in the OCI/AML3 line versus OCIM2, as determined by the responsiveness to stem cell factor (SCF), which mediates c-Kit receptor dimerization, activation, and autophosphorylation (Blume-Jensen, et al., (1991) EMBO Journal 10, 4121-8).

[3] = tested on: OCIM2; test: MTT-based cell proliferation/toxicity assay, OCIM2; parameters: species or system human
Source text: as §1, §2, §3, §4

[4] = tested on: AML5; test: Inhibition of cell proliferation of AML1-AML6 in the presence of SCF; format: cell-based; details: AML5 among AML1-AML6, in the presence of SCF, FIG. 23
[5] = tested on: OCI/AML3; test: Cell cycle analysis in OCI/AML3; format: cell-based, human; details: OCI/AML3, FIG. 15
[6] = tested on: OCI/AML3; test: Colony-forming cell proliferation, OCI/AML3; format: cell-based, human; details: OCI/AML3, FIG. 18
[7] = tested on: HCM1.2 cell line; test: Systemic mastocytosis cell line with mutated c-Kit (position 816); format: cell-based; details: HCM1.2 (mutated c-Kit, position 816) vs HCM1.1 (wild-type), FIG. 12 and 13
Description: The effect of compound 1-[3-(4-fluoro)-1H-pyrazolo[3,4-b]pyridin-6-yl]-3,5-dimethoxy]benzene on two systemic mastocytosis cell lines with unmutated (wild-type) c-Kit (HCM1.1 cell line) and a cell line with mutated c-Kit (mutation at position 816) (HCM1.2 cell line) was also determined. Cell lines were obtained from Dr. Verstovsek (Leuk Res. 2006 Jun. 22, online prepublication).

[8] = Inhibition of cell proliferation in the absence and presence of SCF (FIG. 22); format: cell-based; details: absence vs presence of externally introduced SCF

c-Kit, sequence (P10721 26-976): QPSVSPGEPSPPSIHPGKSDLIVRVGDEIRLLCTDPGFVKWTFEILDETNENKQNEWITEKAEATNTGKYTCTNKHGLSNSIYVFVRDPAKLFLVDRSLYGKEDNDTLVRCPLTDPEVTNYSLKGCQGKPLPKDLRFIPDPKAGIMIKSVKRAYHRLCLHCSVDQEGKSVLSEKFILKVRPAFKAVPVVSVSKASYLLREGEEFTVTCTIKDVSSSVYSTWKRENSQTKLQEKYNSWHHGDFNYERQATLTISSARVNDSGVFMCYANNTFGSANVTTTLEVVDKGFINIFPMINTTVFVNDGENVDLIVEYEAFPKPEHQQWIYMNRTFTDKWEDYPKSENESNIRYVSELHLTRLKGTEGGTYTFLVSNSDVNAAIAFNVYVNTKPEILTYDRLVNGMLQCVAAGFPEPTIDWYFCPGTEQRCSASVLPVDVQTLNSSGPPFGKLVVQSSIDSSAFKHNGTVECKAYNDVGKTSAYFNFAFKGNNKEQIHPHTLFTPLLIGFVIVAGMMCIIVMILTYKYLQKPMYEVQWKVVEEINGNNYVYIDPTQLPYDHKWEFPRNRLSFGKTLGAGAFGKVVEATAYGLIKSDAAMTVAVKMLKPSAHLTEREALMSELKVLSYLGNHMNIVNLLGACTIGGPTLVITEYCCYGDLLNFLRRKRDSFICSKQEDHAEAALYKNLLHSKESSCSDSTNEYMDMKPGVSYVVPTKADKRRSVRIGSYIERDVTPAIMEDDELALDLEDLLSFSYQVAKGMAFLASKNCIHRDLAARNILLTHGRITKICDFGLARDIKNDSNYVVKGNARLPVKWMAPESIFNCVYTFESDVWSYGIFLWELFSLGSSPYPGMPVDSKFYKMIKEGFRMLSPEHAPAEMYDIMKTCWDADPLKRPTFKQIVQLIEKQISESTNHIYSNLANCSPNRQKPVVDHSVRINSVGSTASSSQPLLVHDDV

## COc1ccc(-c2n[nH]c3nc(-c4cccc(NC(C)=O)c4)ccc23)cc1 [Example 1, 3-{(4-Methyloxyphenyl)-1H-pyrazolo[4,3-b]pyridin-6-yl}acetanilide]
[1]
  IC50: ~95 nM
[2]; Homo sapiens, OCI-AML-3, cell viability, OCI/AML3, 72 h, FIG. 6
  EC50: ~100 nM
[2]
  ability to reduce cell line (dose response): same effective ability to reduce OCI/AML3 cell line

## CC(=O)Nc1cccc(-c2ccc3c(-c4ccc(F)cc4)n[nH]c3n2)c1 [Example 3, 3-[3-(4-Fluorophenyl)-1H-pyrazolo[3,4-b]pyridin-6-yl]acetanilide]
[2]
  ability to reduce cell line (dose response): same effective ability to reduce OCI/AML3 cell line

## COc1cc(OC)cc(-c2ccc3c(-c4ccc(F)cc4)n[nH]c3n2)c1 [Example 10]
[3]; OCIM2, FIG. 16
  sensitivity of proliferation: less sensitive
[3]; OCIM2 with and without 50 ng/mL SCF, FIG. 9
  proliferation of SCF-stimulated cells: inhibiting the proliferation
[4]
  inhibition of cell proliferation: less effective inhibition
[5]
  cell cycle effect: causes the accumulation of OCI/AML3 in Sub-G0 phase
[1]
  IC50: > 100000 nM
[6]
  colony-forming cell proliferation: inhibits
[7]
  selectivity between mastocytosis cell lines: selectivity for the cell line containing mutated c-Kit
[2]; OCI/AML3, FIG. 16
  sensitivity of proliferation: quite sensitive
[2]; percent of control, FIG. 24
  comparison with BMS-354825 and Gleevec: favorable comparison
[8]
  effect of SCF on inhibition of cell proliferation: enhanced by the presence of externally introduced SCF

## COc1ccc(-c2n[nH]c3nc(-c4cc(OC)cc(OC)c4)ccc23)cc1 [Example 12]
[1]
  IC50: ~1200 nM
[2]
  ability to reduce cell line (dose response): same effective ability to reduce OCI/AML3 cell line

## CCOC(=O)c1ccc(-c2n[nH]c3nc(-c4ccc(C(=O)NCCN(C)C)cc4)ccc23)cc1 [Example 13]
[1]
  IC50: ~3600 nM
[2]
  ability to reduce cell line (dose response): same effective ability to reduce OCI/AML3 cell line

## Cc1ccc(NC(=O)c2ccc(CN3CCN(C)CC3)cc2)cc1Nc1nccc(-c2cccnc2)n1 [imatinib mesylate, reference compound]
[3]; OCIM2 uninduced, FIG. 10
  response of cell line to prior art compound: resistant
[2]; OCI-AML3 expressing c-Kit, FIG. 6 / FIG. 10
  response of cell line to prior art compound: resistant
